Data published in patent publication US20070264355A1, “BINARY COMPOSITIONS AND METHODS FOR STERILIZATION” (Binary, LLC, priority 2005, published 2007).
Where “and” joins values, the source holds several entries; their conditions need not be identical. Equal entries are not always repeated.

Test system: Staphylococcus aureus (ATCC 6538)
Assay: Microbicidal activity against Staphylococcus aureus (suspension test, surviving CFU)
Assay type: cell-based
Procedure: Bacterial suspensions, specifically Staphylococcus aureus (ATCC 6538) in this example, were prepared by the shake flask method to achieve late log to early stationary phase growth. Bacteria were grown 24 hours in trypticase soy broth (TSB) at 35° C. The cultures were centrifuged at 4,000 rpm for 10 minutes and the supernatants removed. The pellet was collected and washed twice with sterile 0.9% normal saline. The washed microorganisms were suspended and diluted with normal saline to a 3 McFarland standard, i.e., approximately 10^9 bacteria colony forming units (CFU) per ml. Actual colony counts are confirmed by serial dilutions (10^−1 to 10^−5 or 10^−6) plated on trypticase soy agar (TSA) and incubated overnight at 35° C. One hundred microliters of organisms from a stock of 10^7 CFU/ml were used to obtain an approximate final working target inoculum of 10^6 CFU. The microbicidal test is conducted in a vial containing 1.4 ml of final reaction mixture after neutralization.
Each solution was used alone for the individual controls. Organism suspensions were used to achieve a final target concentration of 2-3×10^6 CFU per ml. For the binary system treatments, sodium hypochlorite solution and hydrogen peroxide solution, non-acidified or acidified, were sequentially added to the microorganisms. Acidified hydrogen peroxide solution was obtained by the addition of 1.0% v/v of 0.001 N hydrochloride solution. After each addition, the resulting mixture was allowed to remain in contact with the organisms for a set amount of time at room temperature (about 22° C.), as listed in the Tables 1 and 2. At the end of the treatment time, the mixtures were neutralized with 200 to 500 microliters of thiosulfate solution (2.4%) to quench the activity of sodium hypochlorite and then treated with 100 to 200 microliters of a 1% catalase solution, containing a minimum of 100 units/ul, to quench the hydrogen peroxide activity. If needed, an appropriate volume of sterile saline was added to bring the final volume of reaction mixture to 1.4 ml after neutralization. Serial dilution plate counts were performed from the contents of each vial in sterile saline and inoculated onto TSA for quantitative culture. Plates were then incubated at 37° C. and counts taken at 24 hours.
After an additional 30 minutes, the binary system mixture was then neutralized using 2.4% thiosulfate followed by 1% catalase as described in the Methods Section.

[1] = NaOCl 0.02 mM 15 min, then saline 30 min, inoculum 2530000 CFU
[2] = NaOCl 0.02 mM 15 min, inoculum 2500000 CFU
[3] = NaOCl 0.02 mM 15 min, inoculum 2530000 CFU
[4] = NaOCl 0.03 mM 15 min, then saline 30 min, inoculum 2530000 CFU
[5] = NaOCl 0.03 mM 15 min, inoculum 2500000 CFU
[6] = NaOCl 0.03 mM 15 min, inoculum 2530000 CFU
[7] = NaOCl 0.04 mM 15 min, then saline 30 min, inoculum 2530000 CFU
[8] = NaOCl 0.04 mM 15 min, inoculum 2500000 CFU
[9] = NaOCl 0.04 mM 15 min, inoculum 2530000 CFU
[10] = NaOCl 0.05 mM 15 min, then saline 30 min, inoculum 2530000 CFU
[11] = NaOCl 0.05 mM 15 min, inoculum 2530000 CFU
[12] = NaOCl 0.06 mM 15 min, then saline 30 min, inoculum 2530000 CFU
[13] = NaOCl 0.06 mM 15 min, inoculum 2530000 CFU
[14] = NaOCl 0.07 mM 5 min, inoculum 1600000 CFU
[15] = NaOCl 0.07 mM 15 min, then saline 30 min, inoculum 2530000 CFU
[16] = NaOCl 0.07 mM 15 min, inoculum 1600000 CFU
[17] = NaOCl 0.07 mM 15 min, inoculum 2530000 CFU
[18] = NaOCl 0.07 mM 30 min, inoculum 1600000 CFU
[19] = NaOCl 0.71 mM 5 min, inoculum 1600000 CFU
[20] = NaOCl 0.71 mM 15 min, inoculum 1600000 CFU
[21] = NaOCl 0.71 mM 30 min, inoculum 1600000 CFU
[22] = NaOCl 7.05 mM 5 min, inoculum 1600000 CFU
[23] = NaOCl 7.05 mM 15 min, inoculum 1600000 CFU
[24] = NaOCl 7.05 mM 30 min, inoculum 1600000 CFU
[25] = NaOCl 70.53 mM 5 min, inoculum 1600000 CFU
[26] = NaOCl 70.53 mM 15 min, inoculum 1600000 CFU
[27] = NaOCl 70.53 mM 30 min, inoculum 1600000 CFU
[28] = NaOCl 705.27 mM 5 min, inoculum 1600000 CFU
[29] = NaOCl 705.27 mM 15 min, inoculum 1600000 CFU
[30] = NaOCl 705.27 mM 30 min, inoculum 1600000 CFU

[Na+].[O-]Cl [NaOCl, sodium hypochlorite]
Log 10 (CFU + 1) Survivors [1]: 3.0
Log Reduction [1]: 3.4
Total Viability (CFU) [1]: 1092 CFU
Log 10 (CFU + 1) Survivors [2]: 6.3
Log Reduction [2]: 0.1 and 0.12
Total Viability (CFU) [2]: 1890000 CFU
Log 10 (CFU + 1) Survivors [3]: 3.1
Log Reduction [3]: 3.3 and 3.29
Total Viability (CFU) [3]: 1288 CFU
Log 10 (CFU + 1) Survivors [4]: 2.4
Log Reduction [4]: 4.0
Total Viability (CFU) [4]: 260 CFU
Log 10 (CFU + 1) Survivors [5]: 4.9
Log Reduction [5]: 1.5 and 1.53
Total Viability (CFU) [5]: 74200 CFU
Log 10 (CFU + 1) Survivors [6]: 2.9
Log Reduction [6]: 3.5 and 3.51
Total Viability (CFU) [6]: 784 CFU
Log 10 (CFU + 1) Survivors [7]: 1.3
Log Reduction [7]: 5.1
Total Viability (CFU) [7]: 18 CFU
Log 10 (CFU + 1) Survivors [8]: 2.8
Log Reduction [8]: 3.6 and 3.61
Total Viability (CFU) [8]: 616 CFU
Log 10 (CFU + 1) Survivors [9]: 2.2
Log Reduction [9]: 4.2 and 4.18
Total Viability (CFU) [9]: 167 CFU
Log 10 (CFU + 1) Survivors [10]: 1.1
Log Reduction [10]: 5.3
Total Viability (CFU) [10]: 13 CFU
Log 10 (CFU + 1) Survivors [11]: 1.3
Log Reduction [11]: 5.1 and 5.15
Total Viability (CFU) [11]: 17 CFU
Log 10 (CFU + 1) Survivors [12]: 0.9
Log Reduction [12]: 5.5
Total Viability (CFU) [12]: 7 CFU
Log 10 (CFU + 1) Survivors [13]: 0.0
Log Reduction [13]: 6.4
Total Viability (CFU) [13]: 0 CFU
Log 10 (CFU + 1) Survivors [14]: 0.7
Log Reduction [14]: 5.5
Total Viability (CFU) [14]: 4 CFU
Total Viability (CFU) (NaOCl 0.07 mM 5 min, inoculum 1600000 CFU, listed as sodium hypochlorite): four
Log 10 (CFU + 1) Survivors [15]: 0.0
Log Reduction [15]: 6.4
Total Viability (CFU) [15]: 0 CFU
Log 10 (CFU + 1) Survivors [16]: 0.9
Log Reduction [16]: 5.3
Total Viability (CFU) [16]: 7 CFU
Total Viability (CFU) (NaOCl 0.07 mM 15 min, inoculum 1600000 CFU, listed as sodium hypochlorite): seven
Log 10 (CFU + 1) Survivors [17]: 0.0
Log Reduction [17]: 6.4
Total Viability (CFU) [17]: 0 CFU
Log 10 (CFU + 1) Survivors [18]: 0.0
Log Reduction [18]: 6.2
Total Viability (CFU) [18]: 0 CFU
Log 10 (CFU + 1) Survivors [19]: 0.0
Log Reduction [19]: 6.2
Total Viability (CFU) [19]: 0 CFU
Log 10 (CFU + 1) Survivors [20]: 0.0
Log Reduction [20]: 6.2
Total Viability (CFU) [20]: 0 CFU
Log 10 (CFU + 1) Survivors [21]: 0.0
Log Reduction [21]: 6.2
Total Viability (CFU) [21]: 0 CFU
Log 10 (CFU + 1) Survivors [22]: 0.0
Log Reduction [22]: 6.2
Total Viability (CFU) [22]: 0 CFU
Log 10 (CFU + 1) Survivors [23]: 0.0
Log Reduction [23]: 6.2
Total Viability (CFU) [23]: 0 CFU
Log 10 (CFU + 1) Survivors [24]: 0.0
Log Reduction [24]: 6.2
Total Viability (CFU) [24]: 0 CFU
Log 10 (CFU + 1) Survivors [25]: 0.0
Log Reduction [25]: 6.2
Total Viability (CFU) [25]: 0 CFU
Log 10 (CFU + 1) Survivors [26]: 0.0
Log Reduction [26]: 6.2
Total Viability (CFU) [26]: 0 CFU
Log 10 (CFU + 1) Survivors [27]: 0.0
Log Reduction [27]: 6.2
Total Viability (CFU) [27]: 0 CFU
Log 10 (CFU + 1) Survivors [28]: 0.0
Log Reduction [28]: 6.2
Total Viability (CFU) [28]: 0 CFU
Log 10 (CFU + 1) Survivors [29]: 0.0
Log Reduction [29]: 6.2
Total Viability (CFU) [29]: 0 CFU
Log 10 (CFU + 1) Survivors [30]: 0.0
Log Reduction [30]: 6.2
Total Viability (CFU) [30]: 0 CFU
